According to ChEMBL document CHEMBL3885861, “Open TG-GATES”:

Species: Rattus norvegicus
Experiment: Open TG-GATES - Regimen: Daily Repeat
Assay type: toxicity, organism-based, Sprague-Dawley
Parameters: regimen Daily Repeat, gender Male, age 6 weeks
Conditions: in vivo, po, route gavage; for Bas / Eos / Fbg / Hb / Ht / Lym / MCHC / Mono / Neu / Plat / RBC / Ret / WBC / PT / MCV: tissue Blood; for KIDNEY_L / KIDNEY_R / KIDNEY_TOTAL: tissue Kidney; for LIVER: tissue Liver; for ALP / ALT / AST / CRE / DBIL / IP / K / LDH / Na / PL / RALB / TBIL / TC / TG / TP / gamma-GTP / BUN / Ca: tissue Plasma
[1] = 0 mg/kg, 72 h, dose level Control, time 3 day
[2] = 0 mg/kg, […], dose level Control, time 7 day
[3] = 0 mg/kg, […], dose level Control, time 14 day
[4] = 0 mg/kg, […], dose level Control, time 28 day
[5] = 40 mg/kg, 72 h, dose level Low, time 3 day
[6] = 40 mg/kg, […], dose level Low, time 7 day
[7] = 40 mg/kg, […], dose level Low, time 14 day
[8] = 40 mg/kg, […], dose level Low, time 28 day
[9] = 120 mg/kg, 72 h, dose level Middle, time 3 day

SMILES: CCC(C)(C)C(=O)O[C@H]1C[C@@H](C)C=C2C=C[C@H](C)[C@H](CC[C@@H]3C[C@@H](O)CC(=O)O3)[C@H]21 [SIMVASTATIN]
- TERMINAL_BW [1]: 222.3 g
- Bas [1]: 0%
- Eos [1]: 1%
- Fbg [1]: 227 mg/dL
- Hb [1]: 13.3 g/dL
- Ht [1]: 40%
- Lym [1]: 78.8%
- MCHC [1]: 33.1%
- Mono [1]: 8.8%
- Neu [1]: 11.8%
- Plat [1]: 121.1 x10_4/uL
- RBC [1]: 621.6 x10_4/ul
- Ret [1]: 6.5%
- WBC [1]: 98.2 x10_2/uL
- KIDNEY_L [1]: 1 g
- KIDNEY_R [1]: 1 g
- KIDNEY_TOTAL [1]: 2 g
- LIVER [1]: 11 g
- ALP [1]: 820.2 IU/L
- ALT [1]: 36.6 IU/L
- AST [1]: 58.8 IU/L
- CRE [1]: 0.6 mg/dL
- DBIL [1]: 0.004 mg/dL
- IP [1]: 7.8 mg/dL
- K [1]: 4.6 meq/L
- LDH [1]: 81 IU/L
- Na [1]: 140.2 meq/L
- PL [1]: 143.4 mg/dL
- RALB [1]: 3.8 g/dL
- TBIL [1]: 0.3 mg/dL
- TC [1]: 82.2 mg/dL
- TG [1]: 75.6 mg/dL
- TP [1]: 5.6 g/dL
- gamma-GTP [1]: 1.8 IU/L
- TERMINAL_BW [2]: 253.4 g
- TERMINAL_BW [3]: 301 g
- TERMINAL_BW [4]: 380.8 g
- Bas [2]: 0%
- Eos [2]: 0.8%
- Fbg [2]: 217.4 mg/dL
- Hb [2]: 12.8 g/dL
- Ht [2]: 38.8%
- Lym [2]: 78.6%
- MCHC [2]: 33%
- Mono [2]: 8.8%
- Neu [2]: 12%
- PT [2]: 10.9 s
- Plat [2]: 115.6 x10_4/uL
- RBC [2]: 606.2 x10_4/ul
- Ret [2]: 3.8%
- WBC [2]: 108.7 x10_2/uL
- Bas [3]: 0%
- Eos [3]: 1%
- Fbg [3]: 222.4 mg/dL
- Hb [3]: 13.9 g/dL
- Ht [3]: 41.7%
- Lym [3]: 78.4%
- MCHC [3]: 33.2%
- Mono [3]: 7%
- Neu [3]: 13.8%
- Plat [3]: 123.4 x10_4/uL
- RBC [3]: 674.8 x10_4/ul
- Ret [3]: 6.2%
- WBC [3]: 122.2 x10_2/uL
- Bas [4]: 0%
- Eos [4]: 1%
- Fbg [4]: 227.8 mg/dL
- Hb [4]: 14.5 g/dL
- Ht [4]: 43.6%
- Lym [4]: 85.6%
- MCHC [4]: 33.3%
- MCV [4]: 57.8 fL
- Mono [4]: 4.8%
- Neu [4]: 8.6%
- PT [4]: 11.7 s
- Plat [4]: 120.4 x10_4/uL
- RBC [4]: 753.6 x10_4/ul
- Ret [4]: 3%
- WBC [4]: 132.7 x10_2/uL
- KIDNEY_L [2]: 1.1 g
- KIDNEY_R [2]: 1.1 g
- KIDNEY_TOTAL [2]: 2.2 g
- KIDNEY_L [3]: 1.2 g
- KIDNEY_R [3]: 1.3 g
- KIDNEY_TOTAL [3]: 2.5 g
- KIDNEY_L [4]: 1.4 g
- KIDNEY_R [4]: 1.4 g
- KIDNEY_TOTAL [4]: 2.8 g
- LIVER [2]: 12.2 g
- LIVER [3]: 14 g
- LIVER [4]: 15.9 g
- ALP [2]: 953 IU/L
- ALT [2]: 34.4 IU/L
- AST [2]: 63.4 IU/L
- CRE [2]: 0.7 mg/dL
- DBIL [2]: 0.012 mg/dL
- IP [2]: 7.1 mg/dL
- K [2]: 4.7 meq/L
- LDH [2]: 81.6 IU/L
- Na [2]: 142.4 meq/L
- PL [2]: 152.4 mg/dL
- RALB [2]: 3.8 g/dL
- TBIL [2]: 0.3 mg/dL
- TC [2]: 78.6 mg/dL
- TP [2]: 5.7 g/dL
- gamma-GTP [2]: 1.2 IU/L
- ALP [3]: 777.2 IU/L
- ALT [3]: 34.6 IU/L
- AST [3]: 64.2 IU/L
- BUN [3]: 20.6 mg/dL
- CRE [3]: 0.6 mg/dL
- DBIL [3]: 0.016 mg/dL
- IP [3]: 7 mg/dL
- K [3]: 4.5 meq/L
- LDH [3]: 74.6 IU/L
- Na [3]: 140.6 meq/L
- PL [3]: 154.4 mg/dL
- RALB [3]: 3.8 g/dL
- TBIL [3]: 0.3 mg/dL
- TC [3]: 73.6 mg/dL
- TG [3]: 115.8 mg/dL
- TP [3]: 5.9 g/dL
- gamma-GTP [3]: 1.4 IU/L
- ALP [4]: 672 IU/L
- ALT [4]: 31.8 IU/L
- AST [4]: 57.6 IU/L
- BUN [4]: 20 mg/dL
- CRE [4]: 0.7 mg/dL
- DBIL [4]: 0.016 mg/dL
- IP [4]: 5.9 mg/dL
- K [4]: 4.3 meq/L
- LDH [4]: 76.6 IU/L
- Na [4]: 142.6 meq/L
- PL [4]: 147.8 mg/dL
- RALB [4]: 3.9 g/dL
- TBIL [4]: 0.3 mg/dL
- TC [4]: 66 mg/dL
- TG [4]: 151.4 mg/dL
- TP [4]: 6.1 g/dL
- gamma-GTP [4]: 1.6 IU/L
- TERMINAL_BW [5]: 221.3 g
- Bas [5]: 0%
- Eos [5]: 1%
- Fbg [5]: 222.8 mg/dL
- Hb [5]: 13.6 g/dL
- Ht [5]: 41.1%
- Lym [5]: 77%
- MCHC [5]: 33.2%
- Mono [5]: 8.6%
- Neu [5]: 13.6%
- Plat [5]: 125.7 x10_4/uL
- RBC [5]: 639.6 x10_4/ul
- Ret [5]: 5.1%
- WBC [5]: 97.1 x10_2/uL
- KIDNEY_L [5]: 0.9 g
- KIDNEY_R [5]: 1 g
- KIDNEY_TOTAL [5]: 1.9 g
- ALP [5]: 959.2 IU/L
- ALT [5]: 40.6 IU/L
- AST [5]: 67 IU/L
- BUN [5]: 18 mg/dL
- CRE [5]: 0.5 mg/dL
- DBIL [5]: 0.004 mg/dL
- IP [5]: 7.1 mg/dL
- K [5]: 4.4 meq/L
- LDH [5]: 102.4 IU/L
- Na [5]: 140 meq/L
- PL [5]: 148.4 mg/dL
- RALB [5]: 3.8 g/dL
- TBIL [5]: 0.3 mg/dL
- TC [5]: 88.2 mg/dL
- TG [5]: 69.6 mg/dL
- TP [5]: 5.6 g/dL
- gamma-GTP [5]: 1.8 IU/L
- TERMINAL_BW [6]: 254.5 g
- TERMINAL_BW [7]: 301.6 g
- TERMINAL_BW [8]: 380.4 g
- Bas [6]: 0%
- Eos [6]: 0.6%
- Fbg [6]: 232.4 mg/dL
- Hb [6]: 13.3 g/dL
- Ht [6]: 39.9%
- Lym [6]: 83%
- MCHC [6]: 33.2%
- Mono [6]: 6%
- PT [6]: 11 s
- Plat [6]: 120.4 x10_4/uL
- RBC [6]: 619.6 x10_4/ul
- Ret [6]: 4.2%
- WBC [6]: 123 x10_2/uL
- Bas [7]: 0%
- Eos [7]: 0.6%
- Fbg [7]: 219.4 mg/dL
- Hb [7]: 13.9 g/dL
- Ht [7]: 41.7%
- Lym [7]: 81.6%
- MCHC [7]: 33.3%
- Mono [7]: 5.6%
- Neu [7]: 12.4%
- Plat [7]: 119.7 x10_4/uL
- RBC [7]: 675.8 x10_4/ul
- Ret [7]: 5.3%
- WBC [7]: 121.7 x10_2/uL
- Bas [8]: 0%
- Eos [8]: 1.2%
- Fbg [8]: 244.4 mg/dL
- Hb [8]: 14.8 g/dL
- Ht [8]: 44.7%
- Lym [8]: 81%
- MCHC [8]: 33%
- MCV [8]: 58.3 fL
- Mono [8]: 6.4%
- Neu [8]: 11.6%
- Plat [8]: 111 x10_4/uL
- RBC [8]: 766.6 x10_4/ul
- Ret [8]: 2.3%
- WBC [8]: 112.3 x10_2/uL
- KIDNEY_L [6]: 1.1 g
- KIDNEY_R [6]: 1.1 g
- KIDNEY_TOTAL [6]: 2.2 g
- KIDNEY_L [7]: 1.2 g
- KIDNEY_R [7]: 1.2 g
- KIDNEY_TOTAL [7]: 2.4 g
- KIDNEY_L [8]: 1.4 g
- KIDNEY_R [8]: 1.4 g
- KIDNEY_TOTAL [8]: 2.8 g
- LIVER [6]: 12.5 g
- LIVER [7]: 13.6 g
- LIVER [8]: 16.5 g
- ALP [6]: 877.6 IU/L
- ALT [6]: 38.4 IU/L
- AST [6]: 60.8 IU/L
- BUN [6]: 20.6 mg/dL
- CRE [6]: 0.6 mg/dL
- Ca [6]: 11 mg/dL
- DBIL [6]: 0 mg/dL
- IP [6]: 6.9 mg/dL
- K [6]: 4.9 meq/L
- LDH [6]: 112.2 IU/L
- Na [6]: 141.4 meq/L
- PL [6]: 155 mg/dL
- RALB [6]: 3.8 g/dL
- TBIL [6]: 0.3 mg/dL
- TG [6]: 99.2 mg/dL
- TP [6]: 5.9 g/dL
- gamma-GTP [6]: 1.8 IU/L
- ALP [7]: 819.8 IU/L
- ALT [7]: 37 IU/L
- AST [7]: 61.4 IU/L
- BUN [7]: 20 mg/dL
- CRE [7]: 0.6 mg/dL
- Ca [7]: 10.8 mg/dL
- DBIL [7]: 0.006 mg/dL
- IP [7]: 7.1 mg/dL
- K [7]: 4.7 meq/L
- LDH [7]: 82 IU/L
- Na [7]: 140.8 meq/L
- PL [7]: 145.6 mg/dL
- RALB [7]: 3.9 g/dL
- TBIL [7]: 0.3 mg/dL
- TC [7]: 76.6 mg/dL
- TG [7]: 118.4 mg/dL
- TP [7]: 5.9 g/dL
- gamma-GTP [7]: 1.8 IU/L
- ALP [8]: 751.6 IU/L
- ALT [8]: 34.2 IU/L
- AST [8]: 60.4 IU/L
- BUN [8]: 20.6 mg/dL
- CRE [8]: 0.7 mg/dL
- DBIL [8]: 0.024 mg/dL
- IP [8]: 6.8 mg/dL
- K [8]: 4.3 meq/L
- LDH [8]: 113.6 IU/L
- Na [8]: 143.2 meq/L
- PL [8]: 163 mg/dL
- RALB [8]: 4 g/dL
- TBIL [8]: 0.3 mg/dL
- TC [8]: 78.2 mg/dL
- TG [8]: 165.2 mg/dL
- TP [8]: 6.2 g/dL
- gamma-GTP [8]: 1.4 IU/L
- TERMINAL_BW [9]: 215.2 g
- Bas [9]: 0%
- Eos [9]: 1%
- Fbg [9]: 217.2 mg/dL
- Hb [9]: 13.6 g/dL
